As usually defined, the ED50 is the dose that gives a 50% effect, or the effect in half of the subjects. A low value points to greater potency. A word on the IC50: it is the concentration needed to halve the response being measured.

In assay [1] the test system is Mus musculus. As to the kind of experiment: The compound was tested in vivo for ring immobility in mice. The format is functional.
For assay [2], the system named is Mus musculus. As to the kind of experiment: The compound was tested in vivo for hypothermic activity in mice. The format is functional.
The subject of assay [3] is Mus musculus. As to the kind of experiment: The compound was tested in vivo for locomotor activity in mice. The format is functional.
In assay [4] the test system is Mus musculus. As to the kind of experiment: The compound was tested in vivo for tail-flick latency in mice. The format is functional.
The target of assay [5] is T1, Cannabinoid receptor (Rattus norvegicus, UniProt Q9QZN9+P20272). The experiment in a line: The compound was tested in vitro for binding activity against THC cannabinoid receptor site, using 3H-CP-55940 as the radioligand. The format is protein assay.
For assay [6], the target named is T1, Cannabinoid receptor. As to the kind of experiment: The compound was tested in vitro for binding activity against THC cannabinoid receptor site, using 3H-CP-55940 as the radioligand. Type of assay: protein assay.

A value given as a limit tells only on which side of the number the result lay.

`C=C1CC[C@@H]2[C@@H](C1)c1c(O)cc(CCCCC)cc1OC2(C)C`: the ED50 was found to be 24 mg/kg in the assay with Mus musculus [1], 56 mg/kg in the assay with Mus musculus [2] and 15 mg/kg in the assay on Mus musculus [3]. The same compound showed an MPE50 in the assay on Mus musculus [4] of 5.4 mg/kg.

For the compound `CCCCCc1cc(OCCN2CCOCC2)c2c(c1)OC(C)(C)[C@@H]1CC=C(C)C[C@@H]21`, on Cannabinoid receptor [5], the IC50 is 4.3 µM. Besides, the ED50 with Mus musculus [1] is 118 mg/kg; with Mus musculus [2] it was over 100 mg/kg; in the assay with Mus musculus [3], over 100 mg/kg. The compound also displayed an MPE50 in the assay on Mus musculus [4] of over 100 mg/kg.

On Cannabinoid receptor [6], `CCCCCc1cc(OC)c2c(c1)OC(C)(C)[C@@H]1CCC(C)=C[C@@H]21` gave a concentration for half-maximal inhibition (IC50) of 10 µM. Moreover, the ED50 is 17 mg/kg in the assay with Mus musculus [1], 267 mg/kg in the assay on Mus musculus [2] and over 100 mg/kg with Mus musculus [3]. The same compound registered an MPE50 with Mus musculus [4] of 116 mg/kg.

The compound `CCCCCc1cc(OC)c2c(c1)OC(C)(C)[C@@H]1CC=C(C)C[C@@H]21` had an IC50 at Cannabinoid receptor [6] of 3.2 µM. For the same compound, the ED50 in the assay on Mus musculus [1], in the assay on Mus musculus [2] and in the assay with Mus musculus [3] was over 100 mg/kg throughout. The compound further gave an MPE50 with Mus musculus [4] of 33 mg/kg.

In turn, `C=C1CC[C@@H]2[C@@H](C1)c1c(O)cc(CCC)cc1OC2(C)C` gave an IC50 at Cannabinoid receptor [6] of 1.4 µM. Besides, the median effective dose (ED50) in the assay on Mus musculus [1] was over 30 mg/kg; in the assay with Mus musculus [2], over 30 mg/kg; with Mus musculus [3] it was 20 mg/kg. This compound also had an MPE50 with Mus musculus [4] of 15 mg/kg.

Regarding `C=C1C[C@H]2c3c(O)cc(CCCCC)cc3OC(C)(C)[C@@H]2C[C@H]1O`, on Cannabinoid receptor [6], the IC50 is 1.2 µM. In addition, the ED50 with Mus musculus [1] was 63 mg/kg; in the assay with Mus musculus [2], 50 mg/kg; with Mus musculus [3] it was 20 mg/kg. Besides, the MPE50 with Mus musculus [4] came to 25 mg/kg.

`CCCCCc1cc(O)c2c(c1)OC(C)(C)[C@@H]1CC=C(C)C[C@@H]21` [DELTA-8-TETRAHYDROCANNABINOL]: the ED50 with Mus musculus [1] is 5.2 mg/kg; in the assay with Mus musculus [3] it was 1.9 mg/kg. This compound registered an MPE50 with Mus musculus [4] of 1.5 mg/kg.

Regarding `CCCCCc1cc(O)c2c(c1)OC(C)(C)[C@@H]1CCC(C)=C[C@@H]21` [DRONABINOL], the values for the ED50 in the assay with Mus musculus [1], in the assay with Mus musculus [2] and in the assay with Mus musculus [3] were 1.5 mg/kg, 1.4 mg/kg and 1 mg/kg, respectively. This compound also had an MPE50 with Mus musculus [4] of 1.4 mg/kg.

The values above are taken from ChEMBL document CHEMBL1125839, “Synthesis and pharmacological evaluation of ether and related analogues of delta 8-, delta 9-, and delta 9,11-tetrahydrocannabinol” (J Med Chem, 1991).
